Experiments:
Assay in all cases: MTT assay
Format in all cases: cell-based
[1] = test system: MDA-231 breast tumour cell line; conditions: Homo sapiens, MDA-MB-231, 48 h, read-out: MTT50
[2] = test system: SK-BR-3 breast tumour cell line; conditions: Homo sapiens, 48 h, read-out: MTT50
[3] = test system: WM9 melanoma tumour cell line; conditions: 48 h, read-out: MTT50
[4] = test system: WM793 melanoma tumour cell line; conditions: Homo sapiens, 48 h, read-out: MTT50
[5] = test system: ZR-751 breast tumour cell line; conditions: Homo sapiens, ZR-75-1, 48 h, read-out: MTT50

With `CCC(=O)OCSSc1ccccc1` [Compound Q, 1-phenyl-1,2-dithiapropyl propionate] the IC50 [1] was 68.9 µM, the IC50 [2] was 59 µM and the IC50 [3] was 41 µM. It also gave an IC50 [4] of 47 µM and an IC50 [5] of 52 µM.

Source: patent publication US20030220524A1, “Sulfur containing compounds” (priority 2000, published 2003)
